Data from US20200181117A1, “SUBSTITUTED 3-HETEROARYLOXY-1H-PYRAZOLES AND SALTS THEREOF AND THEIR USE AS HERBICIDAL ACTIVE SUBSTANCES” (BAYER CROPSCIENCE AKTIENGESELLSCHAFT, priority 2017, published 2020).

How the values were obtained:
Format in all cases: in vivo
Viola tricolor [1] = assay: Post-emergence herbicidal action; conditions: 1280 g/ha, rated visually after about 3 weeks vs untreated controls
Description: (§1) A. Post-Emergence Herbicidal Action and Crop Plant Compatibility Seeds of monocotyledonous and dicotyledonous weeds and crop plants were placed in sandy loam in plastic or wood-fiber pots, covered with soil and cultivated in a greenhouse under controlled growth conditions. 2 to 3 weeks after sowing, the test plants were treated at the one-leaf stage. The compounds of the invention, formulated in the form of wettable powders (WP) or as emulsion concentrates (EC), were then sprayed onto the green parts of the plants as aqueous suspension or emulsion with addition of 0.5% additive at a water application rate of 600 l/ha (converted). After the test plants had been kept in the greenhouse under optimum growth conditions for about 3 weeks, the activity of the preparations was rated visually in comparison to untreated controls. For example, 100% activity=the plants have died, 0% activity=like control plants. Tables B1 to B15 below show the effects of selected compounds of the general formula (I) according to Table I on various harmful plants and an application rate corresponding to 1280 g/ha, which were obtained by the experimental procedure mentioned above.

Abutilon theophrasti [2] = assay: Post-emergence herbicidal action; conditions: 1280 g/ha, rated visually after about 3 weeks vs untreated controls
Description: as §1

Pharbitis purpurea = assay: Post-emergence herbicidal action; conditions: 1280 g/ha, rated visually after about 3 weeks vs untreated controls
Description: as §1

Amaranthus retroflexus [3] = assay: Post-emergence herbicidal action; conditions: 1280 g/ha, rated visually after about 3 weeks vs untreated controls
Description: as §1

Viola tricolor [4] = assay: Pre-emergence herbicidal action; conditions: 1280 g/ha, scored visually after about 3 weeks vs untreated controls
From the text: (§2) Pre-Emergence Herbicidal Action and Crop Plant Compatibility Seeds of monocotyledonous and dicotyledonous weed plants and crop plants were placed in plastic or wood fiber pots and covered with soil. The compounds of the invention, formulated in the form of wettable powders (WP) or as emulsion concentrates (EC), were then applied onto the surface of the covering soil as aqueous suspension or emulsion with addition of 0.5% additive at a water application rate of 600 l/ha (converted). After the treatment, the pots were placed in a greenhouse and kept under good growth conditions for the test plants. After about 3 weeks, the effect of the preparations was scored visually in comparison with untreated controls as percentages. For example, 100% activity=the plants have died, 0% activity=like control plants. Tables C1 to C14 below show the effects of selected compounds of the general formula (I) according to Table I on various harmful plants and an application rate corresponding to 1280 g/ha, which were obtained by the experimental procedure mentioned above.

Setaria viridis [5] = assay: Pre-emergence herbicidal action; conditions: 1280 g/ha, scored visually after about 3 weeks vs untreated controls
From the text: as §2

Abutilon theophrasti [6] = assay: Pre-emergence herbicidal action; conditions: 1280 g/ha, scored visually after about 3 weeks vs untreated controls
From the text: as §2

Stellaria media [7] = assay: Pre-emergence herbicidal action; conditions: 1280 g/ha, scored visually after about 3 weeks vs untreated controls
From the text: as §2

Amaranthus retroflexus [8] = assay: Pre-emergence herbicidal action; conditions: 1280 g/ha, scored visually after about 3 weeks vs untreated controls
From the text: as §2

Setaria viridis [9] = assay: Post-emergence herbicidal action; conditions: 1280 g/ha, rated visually after about 3 weeks vs untreated controls
Description: as §1

Polygonum convolvulus [10] = assay: Post-emergence herbicidal action; conditions: 1280 g/ha, rated visually after about 3 weeks vs untreated controls
Description: as §1

Stellaria media [11] = assay: Post-emergence herbicidal action; conditions: 1280 g/ha, rated visually after about 3 weeks vs untreated controls
Description: as §1

Polygonum convolvulus [12] = assay: Pre-emergence herbicidal action; conditions: 1280 g/ha, scored visually after about 3 weeks vs untreated controls
From the text: as §2

Veronica persica = assay: Pre-emergence herbicidal action; conditions: 1280 g/ha, scored visually after about 3 weeks vs untreated controls
From the text: as §2

Echinochloa crus-galli = assay: Pre-emergence herbicidal action; conditions: 1280 g/ha, scored visually after about 3 weeks vs untreated controls
From the text: as §2

Matricaria inodora = assay: Pre-emergence herbicidal action; conditions: 1280 g/ha, scored visually after about 3 weeks vs untreated controls
From the text: as §2

Alopecurus myosuroides [13] = assay: Pre-emergence herbicidal action; conditions: 1280 g/ha, scored visually after about 3 weeks vs untreated controls
From the text: as §2

Hordeum murinum = assay: Pre-emergence herbicidal action; conditions: 1280 g/ha, scored visually after about 3 weeks vs untreated controls
From the text: as §2

Lolium rigidum = assay: Pre-emergence herbicidal action; conditions: 1280 g/ha, scored visually after about 3 weeks vs untreated controls
From the text: as §2

Avena fatua = assay: Pre-emergence herbicidal action; conditions: 1280 g/ha, scored visually after about 3 weeks vs untreated controls
From the text: as §2

Alopecurus myosuroides [14] = assay: Post-emergence herbicidal action; conditions: 1280 g/ha, rated visually after about 3 weeks vs untreated controls
Description: as §1

SMILES | herbicidal activity on Viola tricolor (Viola tricolor [1]) | herbicidal activity on Abutilon theophrasti (Abutilon theophrasti [2]) | herbicidal activity on Pharbitis purpurea (Pharbitis purpurea) | herbicidal activity on Amaranthus retroflexus (Amaranthus retroflexus [3]) | herbicidal activity on Viola tricolor (Viola tricolor [4]) | herbicidal activity on Setaria viridis (Setaria viridis [5]) | herbicidal activity on Abutilon theophrasti (Abutilon theophrasti [6]) | herbicidal activity on Stellaria media (Stellaria media [7]) | herbicidal activity on Amaranthus retroflexus (Amaranthus retroflexus [8]) | herbicidal activity on Setaria viridis (Setaria viridis [9]) | herbicidal activity on Polygonum convolvulus (Polygonum convolvulus [10]) | herbicidal activity on Stellaria media (Stellaria media [11]) | herbicidal activity on Polygonum convolvulus (Polygonum convolvulus [12]) | herbicidal activity on Veronica persica (Veronica persica) | herbicidal activity on Echinochloa crus-galli (Echinochloa crus-galli) | herbicidal activity on Matricaria inodora (Matricaria inodora) | herbicidal activity on Alopecurus myosuroides (Alopecurus myosuroides [13]) | further results
CCc1c(Sc2cccc(Cl)c2)c(Oc2ncc(F)cn2)nn1C [Example I-034] | 100% | 80% | 90% | 100% | 100% | 100% | 80% | 90% | 100% | – | – | – | – | – | – | – | – | –
CCc1c(Sc2ccc(F)cc2)c(Oc2ncccn2)nn1C [Example I-064] | 100% | 80% | – | 100% | 100% | 100% | 100% | 100% | 100% | 100% | 100% | 100% | 100% | 100% | 90% | 90% | 90% | –
CCc1c(Sc2cccc(F)c2)c(Oc2ncc(F)cn2)nn1C [Example I-203] | 100% | 100% | 90% | 100% | 90% | 100% | 90% | 80% | 100% | 90% | – | 90% | 80% | 100% | 80% | 80% | 90% | –
CCc1c(Sc2ccc(F)c(F)c2)c(Oc2ncc(F)cn2)nn1C [Example I-037] | 100% | 90% | 100% | 100% | 100% | 100% | 100% | 100% | 100% | 100% | 80% | 100% | 100% | 100% | 100% | 90% | 100% | herbicidal activity on Hordeum murinum (Hordeum murinum): 90%; herbicidal activity on Lolium rigidum (Lolium rigidum): 100%
CC(C)n1cc(Sc2ccc(F)cc2)c(Oc2ncccn2)n1 [Example I-039] | 100% | – | – | – | 100% | 90% | 100% | 100% | 100% | – | – | – | 90% | 100% | – | 90% | 100% | herbicidal activity on Avena fatua (Avena fatua): 90%
CCc1c(Sc2ccccc2)c(Oc2ncccn2)nn1C [Example I-063] | 100% | 100% | – | 100% | 100% | 100% | 100% | 90% | 100% | 80% | – | – | 100% | – | 100% | 100% | 100% | herbicidal activity on Alopecurus myosuroides (Alopecurus myosuroides [14]): 100%; herbicidal activity on Avena fatua (Avena fatua): 100%; herbicidal activity on Hordeum murinum (Hordeum murinum): 100%
Cc1c(Sc2ccc(F)cc2F)c(Oc2ncc(F)cn2)nn1C [Example I-115] | 100% | 100% | – | 100% | 100% | 100% | 100% | 90% | 100% | 100% | 90% | 100% | 90% | 100% | 100% | 90% | 90% | herbicidal activity on Lolium rigidum (Lolium rigidum): 80%
